Experimental data as given in ChEMBL document CHEMBL6103591, “Discovery of naphthoquinone-furo-piperidone derivatives as dual targeting agents of STAT3 and NQO1 for the treatment of breast cancer” (Eur J Med Chem, 2025).
The source made the active and inactive calls. No cut-off for these calls is given here.

Experiments:
[1] = tested on: MDA-MB-231; experiment: Antiproliferative activity against human MDA-MB-231 cells assessed as reduction in cell viability incubated for 48 hrs by MTT assay; assay type: functional, cell-based; conditions: MDA-MB-231, 48 h
[2] = tested on: MDA-MB-468; experiment: Antiproliferative activity against human MDA-MB-468 cells assessed as reduction in cell viability incubated for 48 hrs by MTT assay; assay type: functional, cell-based; conditions: MDA-MB-468, 48 h
[3] = molecular target: Signal transducer and activator of transcription 3 (Homo sapiens, UniProt P40763); experiment: Inhibition of STAT3 activation in human MDA-MB-231 cells assessed as reduction in STAT3 phosphorylation at Tyr705 residue at 1 uM measured after 24 hrs by Western blot analysis relative to control; assay type: cell-based
[4] = tested on: MCF7; experiment: Antiproliferative activity against human MCF7 cells incubated for 48 hrs by MTT assay; assay type: functional, cell-based; conditions: MCF7, 48 h
[5] = tested on: MDA-MB-468; experiment: Induction of apoptosis in human MDA-MB-468 cells assessed as early apoptotic cells at 3 uM measured after 24 hrs by Annexin V/propidium iodide (PI) double staining based flow cytometric analysis (reference value: 2.94 %); assay type: functional
[6] = tested on: MDA-MB-231; experiment: Induction of apoptosis in human MDA-MB-231 cells assessed as early apoptotic cells at 3 uM measured after 24 hrs by Annexin V/propidium iodide (PI) double staining based flow cytometric analysis (reference value: 1.98 %); assay type: functional
[7] = tested on: MDA-MB-231; experiment: Induction of apoptosis in human MDA-MB-231 cells assessed as late apoptotic cells at 3 uM measured after 24 hrs by Annexin V/propidium iodide (PI) double staining based flow cytometric analysis (reference value: 2.22 %); assay type: functional
[8] = tested on: MDA-MB-468; experiment: Induction of apoptosis in human MDA-MB-468 cells assessed as late apoptotic cells at 3 uM measured after 24 hrs by Annexin V/propidium iodide (PI) double staining based flow cytometric analysis (reference value: 2.24 %); assay type: functional
[9] = tested on: MDA-MB-231; experiment: Downregulation of total STAT3 expression in human MDA-MB-231 cells at 1 uM incubated for 24 hrs by Western blotting analysis; assay type: functional, cell-based

Chain of Signal transducer and activator of transcription 3 (P40763 whole entry): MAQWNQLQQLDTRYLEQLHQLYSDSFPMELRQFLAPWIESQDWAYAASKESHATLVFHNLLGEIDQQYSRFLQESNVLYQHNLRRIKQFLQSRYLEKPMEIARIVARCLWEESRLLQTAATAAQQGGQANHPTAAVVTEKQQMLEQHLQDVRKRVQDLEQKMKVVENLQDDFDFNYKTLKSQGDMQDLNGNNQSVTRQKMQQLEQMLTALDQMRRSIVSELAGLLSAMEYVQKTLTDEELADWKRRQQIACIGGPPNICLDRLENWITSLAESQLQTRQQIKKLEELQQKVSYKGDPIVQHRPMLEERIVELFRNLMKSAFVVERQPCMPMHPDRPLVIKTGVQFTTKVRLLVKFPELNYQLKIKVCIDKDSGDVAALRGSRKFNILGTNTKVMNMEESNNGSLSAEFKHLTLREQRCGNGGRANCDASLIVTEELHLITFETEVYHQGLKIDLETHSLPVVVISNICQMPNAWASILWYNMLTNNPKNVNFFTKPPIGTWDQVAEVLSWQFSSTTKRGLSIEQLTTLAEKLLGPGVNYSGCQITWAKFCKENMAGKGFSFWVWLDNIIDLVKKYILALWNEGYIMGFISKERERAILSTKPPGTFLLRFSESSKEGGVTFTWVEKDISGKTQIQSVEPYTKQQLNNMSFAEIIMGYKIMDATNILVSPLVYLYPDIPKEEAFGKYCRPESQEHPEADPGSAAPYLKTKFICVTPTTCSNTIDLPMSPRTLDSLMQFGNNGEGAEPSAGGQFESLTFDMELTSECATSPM

| IC50 [1] [nM] | IC50 [2] [nM] | Structure (SMILES) | further results |
| --- | --- | --- | --- |
| 930 | 2420 | COC(=O)[C@H](Cc1ccccc1)N1CCc2c(oc3c2C(=O)C(=O)c2ccccc2-3)C1=O | – |
| 1840 | 1180 | CCN(CC)CCn1ccc2c3c(oc2c1=O)-c1ccccc1C(=O)C3=O | – |
| 930 | 2420 | O=C1C(=O)c2c(oc3c2CCN([C@H](CO)Cc2ccccc2)C3=O)-c2ccccc21 | – |
| 3070 | 2550 | CNC(=O)[C@H](Cc1ccccc1)N1CCc2c(oc3c2C(=O)C(=O)c2ccccc2-3)C1=O | – |
| 1500 | 1550 | COC(=O)CN1CCc2c(oc3c2C(=O)C(=O)c2ccccc2-3)C1=O | – |
| 610 | 1310 | CCN(CC)CCN1CCc2c(oc3c2C(=O)C(=O)c2ccccc2-3)C1=O | inhibition [3]: Active |
| > 4000 | 2490 | C[C@@H]1CN(CCCN2CCc3c(oc4c3C(=O)C(=O)c3ccccc3-4)C2=O)C[C@H](C)N1 | – |
| 910 | 1330 | O=C1C(=O)c2c(oc3c2CCN(CCCN2CCCC2)C3=O)-c2ccccc21 | – |
| 3480 | 2370 | COC(=O)CC[C@@H](C(=O)OC)N1CCc2c(oc3c2C(=O)C(=O)c2ccccc2-3)C1=O | – |
| 680 | 1580 | C[C@@H]1CN(CCCN2CCc3c(oc4c3C(=O)C(=O)c3ccccc3-4)C2=O)CCO1 | – |
| 650 | 1070 | CCN(CC)CCCN1CCc2c(oc3c2C(=O)C(=O)c2ccccc2-3)C1=O | inhibition [3]: Active |
| 2490 | 2450 | CC(C)C[C@@H](CO)N1CCc2c(oc3c2C(=O)C(=O)c2ccccc2-3)C1=O | – |
| 680 | 1210 | COC(=O)[C@H](C)N1CCc2c(oc3c2C(=O)C(=O)c2ccccc2-3)C1=O | – |
| 2940 | 2370 | O=C1C(=O)c2c(oc3c2CCN(CCCn2ccnc2)C3=O)-c2ccccc21 | – |
| 750 | 1430 | O=C1C(=O)c2c(oc3c2CCN(CCO)C3=O)-c2ccccc21 | – |
| 1300 | 410 | CN1CCN(CCN2CCc3c(oc4c3C(=O)C(=O)c3ccccc3-4)C2=O)CC1 | – |
| 740 | 1240 | O=C1C(=O)c2c(oc3c2CCN(CCCN2CCOCC2)C3=O)-c2ccccc21 | – |
| > 4000 | > 4000 | O=C1C(=O)c2c(oc3c2CCN([C@H](CO)CCCO)C3=O)-c2ccccc21 | – |
| 640 | 1310 | C[C@@H](CO)N1CCc2c(oc3c2C(=O)C(=O)c2ccccc2-3)C1=O | – |
| – | – | CC1(C)CCC2=C(O1)c1ccccc1C(=O)C2=O [LAPACHONE] | IC50 [4]: 3990 nM |
| 2440 | 2660 | COC(=O)[C@H](CC(C)C)N1CCc2c(oc3c2C(=O)C(=O)c2ccccc2-3)C1=O | – |
| 3500 | 3590 | CC(=O)c1cc2c(o1)C(=O)c1ccccc1C2=O [NAPABUCASIN] | Activity [5]: 8.87%; Activity [6]: 3.34%; Activity [7]: 6.23%; Activity [8]: 6% |
| 330 | 1200 | O=C1C(=O)c2c(oc3c2CCN(CCCN2CCCCC2)C3=O)-c2ccccc21 | Activity [9]: Active; inhibition [3]: 100% |

| IC50 [1] [nM] | IC50 [2] [nM] | Structure (SMILES) | further results |
| --- | --- | --- | --- |
| 3330 | 2430 | COC(=O)[C@H](Cc1ccc(O)cc1)N1CCc2c(oc3c2C(=O)C(=O)c2ccccc2-3)C1=O | – |
| 840 | 1210 | CN(C)CCn1ccc2c3c(oc2c1=O)-c1ccccc1C(=O)C3=O | – |
| 540 | 1560 | CN(C)CCN1CCc2c(oc3c2C(=O)C(=O)c2ccccc2-3)C1=O | inhibition [3]: Active |
| 740 | 1430 | CN(C)CCCN1CCc2c(oc3c2C(=O)C(=O)c2ccccc2-3)C1=O | – |
| 1140 | 2230 | O=C1C(=O)c2c(oc3c2CCN(CCCO)C3=O)-c2ccccc21 | – |
| 2510 | 2370 | COC(=O)CCCN1CCc2c(oc3c2C(=O)C(=O)c2ccccc2-3)C1=O | – |
| 2290 | 3070 | O=C1C(=O)c2c(oc3c2CCN(CCCCO)C3=O)-c2ccccc21 | – |
| 1230 | 1290 | O=C1C(=O)c2c(oc3c2CCN(C2CCC(N4CCOCC4)CC2)C3=O)-c2ccccc21 (stereo not drawn) | – |
| 1930 | 2320 | CNC(=O)[C@H](CC(C)C)N1CCc2c(oc3c2C(=O)C(=O)c2ccccc2-3)C1=O | – |
| 2620 | 1380 | CNC(=O)[C@H](C)N1CCc2c(oc3c2C(=O)C(=O)c2ccccc2-3)C1=O | – |
| 750 | 770 | CN1CCN(CCCN2CCc3c(oc4c3C(=O)C(=O)c3ccccc3-4)C2=O)CC1 | – |
| 2530 | 2420 | COC(=O)CCN1CCc2c(oc3c2C(=O)C(=O)c2ccccc2-3)C1=O | – |
| 3690 | 2500 | O=C1C(=O)c2c(oc3c2CCN(CCC(=O)N2CCCCC2)C3=O)-c2ccccc21 | – |
| 3510 | 2890 | C[C@@H](C(N)=O)N1CCc2c(oc3c2C(=O)C(=O)c2ccccc2-3)C1=O | – |
| 920 | 1460 | O=C1C(=O)c2c(oc3c2CCN(CCCN2CC4(COC4)C2)C3=O)-c2ccccc21 | – |
| 3780 | 1460 | COC(=O)[C@H](CO)N1CCc2c(oc3c2C(=O)C(=O)c2ccccc2-3)C1=O | – |
| 880 | 630 | O=C1C(=O)c2c(oc3c(=O)n(CCN4CCCCC4)ccc23)-c2ccccc21 | – |
| 1080 | 1960 | O=C1C(=O)c2c(oc3c2CCN(CCN2CCOCC2)C3=O)-c2ccccc21 | – |
| 800 | 1720 | C[C@H]1CN(CCCN2CCc3c(oc4c3C(=O)C(=O)c3ccccc3-4)C2=O)CCO1 | – |
| 3050 | 2240 | O=C1C(=O)c2c(oc3c2CCN(CCC(=O)N2CCOCC2)C3=O)-c2ccccc21 | – |
| > 4000 | 2620 | O=C1C(=O)c2c(oc3c2CCN([C@H](CO)Cc2ccc(O)cc2)C3=O)-c2ccccc21 | – |
| 3270 | 3690 | O=CN1CCN(CCCN2CCc3c(oc4c3C(=O)C(=O)c3ccccc3-4)C2=O)CC1 | – |
